Patent publication US12655116B2, “Substituted isophthalic acid diamides” (Bayer Aktiengesellschaft, priority 2020, dated 2026)

Columns and labels:
ABUTH [1] = assay: Pre-emergence herbicidal action against ABUTH; type: in vivo, Abutilon theophrasti; details: for Pre-emergence action against ABUTH (herbicidal activity): 80 g/ha, scored visually after 3 weeks vs untreated controls (100% = plants have died, 0% = like control plants); for Pre-emergence action against ABUTH (herbicidal activity in percent): dosage 20 g/ha, scored visually after 3 weeks vs untreated controls, 100% = plants have died, 0% = like control plants
Outline: (§1)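 Seeds sown in sandy loam, soil-covered; compound sprayed on soil surface pre-emergence. Application: WP/EC, 600–800 l/ha, 0.2% wetting agent. Readout: visual % damage at 3 weeks.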

ALOMY [2] = assay: Pre-emergence herbicidal action against ALOMY; type: in vivo, Alopecurus myosuroides; details: for Pre-emergence action against ALOMY (herbicidal activity): 80 g/ha, scored visually after 3 weeks vs untreated controls (100% = plants have died, 0% = like control plants)
Outline: as §1

AMARE [3] = assay: Pre-emergence herbicidal action against AMARE; type: in vivo, Amaranthus retroflexus
Outline: as §1

AVEFA [4] = assay: Pre-emergence herbicidal action against AVEFA; type: in vivo, Avena fatua; details: 80 g/ha, pre-emergence
Outline: as §1

ECHCG [5] = assay: Pre-emergence herbicidal action against ECHCG; type: in vivo, Echinochloa crus-galli
Outline: as §1

MATIN [6] = assay: Pre-emergence herbicidal action against MATIN; type: in vivo, Matricaria inodora
Outline: as §1

PHBPU [7] = assay: Pre-emergence herbicidal action against PHBPU; type: in vivo, Pharbitis purpurea
Outline: as §1

SETVI [8] = assay: Pre-emergence herbicidal action against SETVI; type: in vivo, Setaria viridis
Outline: as §1

VERPE [9] = assay: Pre-emergence herbicidal action against VERPE; type: in vivo, Veronica persica; details: dosage 80 g/ha
Outline: as §1

VIOTR [10] = assay: Pre-emergence herbicidal action against VIOTR; type: in vivo, Viola tricolor
Outline: as §1

ABUTH [11] = assay: Post-emergence herbicidal action against ABUTH; type: in vivo, Abutilon theophrasti; details: visual assessment about 3 weeks after treatment vs untreated controls
Outline: (§2)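 Percent herbicidal action is rated by eye about 3 weeks after treatment against untreated controls, where 100% means dead plants and 0% means like controls. Plants in sandy loam are sprayed on green parts at the one-leaf stage with aqueous WP or EC preparations at 600 to 800 l/ha plus 0.2% wetting agent.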

ALOMY [12] = assay: Post-emergence herbicidal action against ALOMY; type: in vivo, Alopecurus myosuroides; details: dosage 20 g/ha, visual assessment about 3 weeks after treatment vs untreated controls
Outline: as §2

AMARE [13] = assay: Post-emergence herbicidal action against AMARE; type: in vivo, Amaranthus retroflexus; details: 20 g/ha, visual assessment about 3 weeks after treatment, 100% = plants have died, 0% = like control plants
Outline: as §2

AVEFA [14] = assay: Post-emergence herbicidal action against AVEFA; type: in vivo, Avena fatua; details: 20 g/ha, visual assessment about 3 weeks after treatment, 100% = plants have died, 0% = like control plants
Outline: as §2

ECHCG [15] = assay: Post-emergence herbicidal action against ECHCG; type: in vivo, Echinochloa crus-galli
Outline: as §2

MATIN [16] = assay: Post-emergence herbicidal action against MATIN; type: in vivo, Matricaria inodora
Outline: as §2

PHBPU [17] = assay: Post-emergence herbicidal action against PHBPU; type: in vivo, Pharbitis purpurea
Outline: as §2

SETVI [18] = assay: Post-emergence herbicidal action against SETVI; type: in vivo, Setaria viridis
Outline: as §2

VIOTR [19] = assay: Post-emergence herbicidal action against VIOTR; type: in vivo, Viola tricolor
Outline: as §2

DIGSA = assay: Pre-emergence herbicidal action against DIGSA; type: in vivo, Digitaria sanguinalis
Outline: as §1

VERPE [20] = assay: Post-emergence herbicidal action against VERPE; type: in vivo, Veronica persica; details: 20 g/ha
Outline: as §2

[21] = 20 g/ha, scored visually after 3 weeks vs untreated controls, 100% = plants have died, 0% = like control plants
[22] = 80 g/ha, scored visually after 3 weeks vs untreated controls (100% = plants have died, 0% = like control plants)

Row | SMILES | Pre-emergence action against ABUTH (herbicidal activity) (ABUTH [1]) | Pre-emergence action against ABUTH (herbicidal activity in percent) (ABUTH [1]) | Pre-emergence action against ALOMY (herbicidal activity) (ALOMY [2]) | Pre-emergence action against AMARE in % (AMARE [3]; [21]) | Pre-emergence action against AMARE in % (AMARE [3]; [22]) | Pre-emergence action against AVEFA in % (AVEFA [4]) | Pre-emergence action against ECHCG in % (ECHCG [5]; 80 g/ha) | Pre-emergence action against MATIN in % (MATIN [6]; dosage 20 g/ha) | Pre-emergence action against MATIN in % (MATIN [6]; dosage 80 g/ha) | Pre-emergence action against PHBPU in % (PHBPU [7]; dosage 80 g/ha) | Pre-emergence action against SETVI in % (SETVI [8]; dosage 80 g/ha) | Pre-emergence action against VERPE in % (VERPE [9]) | Pre-emergence action against VIOTR in % (VIOTR [10]; dosage 80 g/ha) | Post-emergence action against ABUTH in % (ABUTH [11]; dosage 5 g/ha) | Post-emergence action against ABUTH in % (ABUTH [11]; dosage 20 g/ha) | Post-emergence action at 20 g/ha against AVEFA in % (AVEFA [14]) | Post-emergence action against ECHCG in % (ECHCG [15]; dosage 5 g/ha) | Post-emergence action against ECHCG in % (ECHCG [15]; dosage 20 g/ha) | Post-emergence action against PHBPU in % (PHBPU [17]; dosage 20 g/ha) | Pre-emergence action against VIOTR in % (VIOTR [10]; dosage 20 g/ha) | other results
1 | CCn1nnnc1NC(=O)c1ccc(C(F)(F)F)c(C(=O)NCC(F)F)c1SC [Example 2-86] | 100% | 100% | 90% | 100% | 100% | 90% | 100% | 100% | 100% | 90% | 100% | 90% | 100% | 80% | 100% | 80% | 100% | 100% | 90% |  | Pre-emergence action against ECHCG in % (ECHCG [5]; 20 g/ha): 80%; Pre-emergence action against PHBPU in % (PHBPU [7]; dosage 20 g/ha): 80%; Post-emergence action against ALOMY in % (ALOMY [12]): 80%; Post-emergence action at 20 g/ha against AMARE in % (AMARE [13]): 100%; Post-emergence action against MATIN in % (MATIN [16]; dosage 5 g/ha): 80%; Post-emergence action against MATIN in % (MATIN [16]; dosage 20 g/ha): 90%; Post-emergence action against PHBPU in % (PHBPU [17]; dosage 5 g/ha): 80%; Post-emergence action against SETVI in % (SETVI [18]; dosage 5 g/ha): 100%; Post-emergence action against SETVI in % (SETVI [18]; dosage 20 g/ha): 100%; Post-emergence action against VIOTR in % (VIOTR [19]; 5 g/ha): 100%; Post-emergence action against VIOTR in % (VIOTR [19]; 20 g/ha): 100%
2 | CCn1nnnc1NC(=O)c1ccc(C(F)(F)F)c(C(=O)NCC(F)(F)F)c1C [Example 2-29] | 100% | 100% | 80% | 100% | 100% | 100% | 100% | 100% | 100% | 80% | 100% |  | 100% |  | 80% | 80% |  | 80% | 80% | 100% | Pre-emergence action against DIGSA in % (DIGSA; dosage 20 g/ha): 90%; Pre-emergence action against DIGSA in % (DIGSA; dosage 80 g/ha): 100%; Post-emergence action against MATIN in % (MATIN [16]; dosage 20 g/ha): 80%; Post-emergence action against SETVI in % (SETVI [18]; dosage 20 g/ha): 80%
3 | Cc1c(C(=O)Nc2nnnn2C)ccc(C(F)(F)F)c1C(=O)NCC(F)F [Example 1-30] | 100% | 100% | 80% | 100% | 100% | 100% | 80% | 100% | 100% | 100% | 100% |  | 100% | 80% | 80% | 80% |  | 80% | 80% | 100% | Pre-emergence action against SETVI in % (SETVI [8]; dosage 20 g/ha): 90%; Pre-emergence action against DIGSA in % (DIGSA; dosage 20 g/ha): 100%; Pre-emergence action against DIGSA in % (DIGSA; dosage 80 g/ha): 100%; Post-emergence action against ALOMY in % (ALOMY [12]): 80%
4 | CCc1c(C(=O)Nc2nnnn2CC)ccc(C(F)(F)F)c1C(=O)NC(C)C1CC1 (centres unmarked) [Example 2-341] | 100% | 100% | 90% | 100% | 100% | 90% | 100% | 100% | 100% | 80% | 90% | 90% | 100% |  | 80% | 90% | 80% | 90% | 80% | 90% | Pre-emergence action against ALOMY (ALOMY [2]; 20 g/ha, scored visually after 3 weeks, 100% = plants have died, 0% = like control plants): 80%; Post-emergence action at 20 g/ha against AMARE in % (AMARE [13]): 100%; Post-emergence action against MATIN in % (MATIN [16]; dosage 20 g/ha): 80%
5 | Cc1c(C(=O)Nc2nnnn2C)ccc(C(F)(F)F)c1C(=O)NC(C)C1CC1 (centres unmarked) [Example 1-31] | 100% | 100% | 90% | 100% | 100% | 90% | 100% | 100% | 100% | 80% | 100% | 100% | 100% | 80% | 80% | 90% | 80% | 80% | 80% | 100% | Pre-emergence action against ECHCG in % (ECHCG [5]; 20 g/ha): 90%; Pre-emergence action against DIGSA in % (DIGSA; dosage 20 g/ha): 100%; Pre-emergence action against DIGSA in % (DIGSA; dosage 80 g/ha): 100%; Post-emergence action against VERPE in % (VERPE [20]): 80%
